Reference: patent publication US20230042729A1, “PEPTIDE CONSTRUCTS AND COMPOSITIONS” (DIET4LIFE APS, priority 2019, published 2023)
No end group written: not given here.

What was measured:
[1] = biological target: murine intestinal cells (Mus musculus, UniProt O88319); assay: Ca2+ flux / calcium response assay (cell signaling activity); format: cell-based
Description: Ca^2+ Flux Assay/Calcium Response Assay:
Elevation of intracellular calcium level was measured using the fluorescent calcium chelating dye Fluo-4 AM (ThermoFischer Scientific, Denmark). Briefly, cells were grown as a monolayer in 96-well tissue culture plates (Sarstedt, Germany) to near confluence in appropriate growth medium as described in the cell culture section.
All test compounds were dissolved in water, and then diluted in 1×HBSS containing 25 mM HEPES (pH 7.4), 1% BSA and 2% ink. […]

[2] = Stability of peptides in serum, remaining activity read in intestinal cells; format: in vitro ADME, Bovine; details: for Stability in serum (activity remaining): octapeptides, fraction of peptide activity left after 10 min of incubation in serum at 37° C. compared with undigested sample
Description: All peptides were incubated at 10^−5 M with Fetal Bovine Serum (FBS; final concentration of 66.7%) (Sigma Aldrich, Denmark) at 37° C. for 3 hours. The peptide degradation was terminated using 1 M phosphoric acid (final 0.4 M, pH˜1.2) and neutralized to pH 7.2-7.4 with NaOH before testing activity in intestinal cells. As for small intestine homogenates, a zero degradation control was included for each peptide.
DC7-2, NT, DKPYIL and NT-(8-13) (final concentration of 10^−6 M) were incubated either with FBS or with 270× diluted intestinal homogenate at 37° C. for various time points with shaking. Degradation was stopped with 1 M phosphoric acid and the samples were subsequently neutralized and immediately tested with intestinal cells as described above. Control for zero degradation was included for each peptide as above.
(§1) The 20 hexapeptides with systematic N-terminal substitutions (X-KPYIL) (Schafer-N, Denmark) and NT (8-13) was incubated at 10^−6 M in either FBS for 10 minutes or with 270× diluted intestinal homogenate for 30 minutes at 37° C. with shaking. The degradation was stopped with 1 M phosphoric acid. Peptide solutions were neutralized with NaOH (pH 7.2-7.4), diluted and immediately tested for bioactivity using murine intestinal cells. Determination of EC50 for stimulation of cells allowed calculation of recovered peptide.

[3] = Stability of peptides in intestine homogenate, remaining activity read in intestinal cells; format: in vitro ADME, mice; details: for Stability in intestine (activity remaining): octapeptides, % activity left after 30 min incubation in intestine homogenate at 37° C.
Description: Small intestines from 20 Swiss-Webster males were homogenized in 350 ml Dulbecco's phosphate-buffered saline (PBS) (pH 7.4) (ThermoFischer Scientific, Denmark) with a IKA® basic 18 Ultra-Turrax tissue homogenizer set a speed 5 followed by filtration using 100 μm nylon mesh filter. Protein concentration was 6 mg/ml using the bicinconinic acid assay (ThermoFischer Scientific, Denmark) and bovine serum albumin as standard. The intestine homogenate was diluted 10 times in HBSS containing 25 mM HEPES (pH 7.4), and further diluted 30×, 90×, 270×, 810× or 2430× before incubation with peptides. All solutions were prewarmed to 37° C. before mixing with peptide solutions.
Peptides were incubated at 10^−5 M with dilutions of small intestine homogenate at 37° C. for 90 minutes with shaking. Reactions were stopped by addition of 1 M phosphoric acid (final 0.4 M, pH˜1.2). Each peptide incubation mix was then neutralized with NaOH to pH 7.2-7.4 and immediately tested for activity in intestinal cells. Control for zero degradation, i.e. addition of 1 M phosphoric acid prior to addition of intestine homogenate, was included for each peptide. […]
as §1

[4] = biological target: trypsin inhibitor T9253 from chicken egg white (UniProt P01005)
Chain of trypsin inhibitor T9253 from chicken egg white (P01005 25-210): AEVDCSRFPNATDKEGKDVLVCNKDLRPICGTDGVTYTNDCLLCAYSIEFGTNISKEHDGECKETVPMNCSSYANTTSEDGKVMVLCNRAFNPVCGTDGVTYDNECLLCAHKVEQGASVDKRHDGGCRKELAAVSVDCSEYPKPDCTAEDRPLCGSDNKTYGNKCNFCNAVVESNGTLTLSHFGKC

[5] = biological target: T1, trypsin inhibitor, T9128 from soybean (UniProt P01070)
T1 sequence: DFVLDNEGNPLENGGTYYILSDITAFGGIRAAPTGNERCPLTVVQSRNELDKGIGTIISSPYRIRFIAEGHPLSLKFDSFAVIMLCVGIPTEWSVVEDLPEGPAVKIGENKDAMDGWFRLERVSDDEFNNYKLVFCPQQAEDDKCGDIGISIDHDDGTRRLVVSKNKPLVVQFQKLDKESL

Chain of murine intestinal cells (O88319 whole entry): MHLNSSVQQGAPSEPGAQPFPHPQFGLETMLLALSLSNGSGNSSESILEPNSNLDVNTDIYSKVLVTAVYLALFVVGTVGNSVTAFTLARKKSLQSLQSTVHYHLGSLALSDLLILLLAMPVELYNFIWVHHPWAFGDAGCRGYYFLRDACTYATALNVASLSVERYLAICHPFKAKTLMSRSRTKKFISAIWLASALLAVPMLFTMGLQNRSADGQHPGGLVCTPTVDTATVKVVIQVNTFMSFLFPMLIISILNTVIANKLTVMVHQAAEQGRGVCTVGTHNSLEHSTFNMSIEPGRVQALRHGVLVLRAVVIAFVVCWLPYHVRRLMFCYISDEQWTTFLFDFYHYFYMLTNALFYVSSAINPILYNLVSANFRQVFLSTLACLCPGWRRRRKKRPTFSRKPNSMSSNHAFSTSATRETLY

Row | Substance | EC50 [1] | further results
1 | SPYIL [Peptide 36011, S PYIL] | 22.5 nM | –
2 | DPYIL [Peptide 35998, D PYIL] | 158 nM | –
3 | DKPYIL [Peptide 35978, D KPYIL] | – | stability in serum compared to neurotensin (8-13) RRPYIL [2]: around 100 times; stability in intestine homogenate compared to neurotensin (8-13) RRPYIL [3]: 100-1000 ×
4 | WDKPYIL [Peptide 36034, W DKPYIL] | 14.1 nM | –
5 | CDKPYIL [Peptide 36017, C DKPYIL] | 7.72 nM | –
6 | GSDKPYIL [Peptide 36041, G SDKPYIL] | 4.07 nM | Stability in serum (activity remaining) [2]: 0.0912; Stability in intestine (activity remaining) [3]: 10.3%
7 | GPYIL [Peptide 36001, G PYIL] | 17.4 nM | –
8 | VPYIL [Peptide 36013, V PYIL] | 37.8 nM | –
9 | trypsin in intestine homogenate (mouse small intestine) | – | trypsin activity (conversion of L-BAPA, slope of kinetic absorbance) [4]: Intestinal and pancreatic trypsin activity was inhibited in a dose-dependent manner by two specific trypsin inhibitors from soybean and chicken egg white, respectively; trypsin activity (conversion of L-BAPA, slope of kinetic absorbance) [5]: Intestinal and pancreatic trypsin activity was inhibited in a dose-dependent manner by two specific trypsin inhibitors from soybean and chicken egg white, respectively
10 | APYIL [Peptide 35996, A PYIL] | 11.8 nM | –
11 | QKPYIL [Peptide 35989, Q KPYIL] | 0.378 nM | –
12 | LKPYIL [Peptide 35985, L KPYIL] | 0.33 nM | –
13 | YSDKPYIL [Peptide 36055, Y SDKPYIL] | 5.92 nM | Stability in serum (activity remaining) [2]: 0.0491; Stability in intestine (activity remaining) [3]: 3.0%
14 | FDKPYIL [Peptide 36020, F DKPYIL] | 9.52 nM | –
15 | VKPYIL [Peptide 35993, V KPYIL] | 1.17 nM | –
16 | LPYIL [Peptide 36005, L PYIL] | 41 nM | –
17 | NDKPYIL [Peptide 36027, N DKPYIL] | 5.92 nM | –
18 | SSDKPYIL [Peptide 36051, S SDKPYIL] | 4.27 nM | Stability in serum (activity remaining) [2]: 0.0609; Stability in intestine (activity remaining) [3]: 19.5%

Row | Substance | EC50 [1] | further results
19 | ESDKPYIL [Peptide 36039, E SDKPYIL] | 4.82 nM | Stability in serum (activity remaining) [2]: 0.0964; Stability in intestine (activity remaining) [3]: 23.0%
20 | QPYIL [Peptide 36009, Q PYIL] | 20.5 nM | –
21 | YPYIL [Peptide 36015, Y PYIL] | 140 nM | –
22 | PDKPYIL [Peptide 36028, P DKPYIL] | 4.67 nM | –
23 | CSDKPYIL [Peptide 36037, C SDKPYIL] | 5.44 nM | Stability in serum (activity remaining) [2]: 0.0963; Stability in intestine (activity remaining) [3]: 14.0%
24 | HPYIL [Peptide 36002, H PYIL] | 35.6 nM | –
25 | YKPYIL [Peptide 35995, Y KPYIL] | 3.34 nM | –
26 | WSDKPYIL [Peptide 36054, W SDKPYIL] | 8.87 nM | Stability in serum (activity remaining) [2]: 0.0426; Stability in intestine (activity remaining) [3]: 3.6%
27 | FSDKPYIL [Peptide 36040, F SDKPYIL] | 3.85 nM | Stability in serum (activity remaining) [2]: 0.0944; Stability in intestine (activity remaining) [3]: 3.4%
28 | IPYIL [Peptide 36003, 1 PYIL] | 23.8 nM | –
29 | MPYIL [Peptide 36006, M PYIL] | 16.2 nM | –
30 | TSDKPYIL [Peptide 36052, T SDKPYIL] | 5.63 nM | Stability in serum (activity remaining) [2]: 0.0535; Stability in intestine (activity remaining) [3]: 8.4%
31 | RDKPYIL [Peptide 36030, R DKPYIL] | 4.68 nM | –
32 | YDKPYIL [Peptide 36035, Y DKPYIL] | 6.83 nM | –
33 | PSDKPYIL [Peptide 36048, P SDKPYIL] | 4.14 nM | Stability in serum (activity remaining) [2]: 0.0772; Stability in intestine (activity remaining) [3]: 4.6%
34 | MDKPYIL [Peptide 36026, M DKPYIL] | 6.08 nM | –
35 | KDKPYIL [Peptide 36024, K DKPYIL] | 11.2 nM | –
36 | GDKPYIL [Peptide 36021, G DKPYIL] | 2.91 nM | –
